Active and inactive are the calls of the source.
How the values were obtained:
[1] = target: T1, Zinc finger protein mex-5 (Caenorhabditis elegans, UniProt Q9XUB2); assay: potency of MEX-5 RNA-binding blockers – biochemical, C. elegans, fluorescence polarization, dose response (AID 1960)
T1 sequence (Q9XUB2 whole entry): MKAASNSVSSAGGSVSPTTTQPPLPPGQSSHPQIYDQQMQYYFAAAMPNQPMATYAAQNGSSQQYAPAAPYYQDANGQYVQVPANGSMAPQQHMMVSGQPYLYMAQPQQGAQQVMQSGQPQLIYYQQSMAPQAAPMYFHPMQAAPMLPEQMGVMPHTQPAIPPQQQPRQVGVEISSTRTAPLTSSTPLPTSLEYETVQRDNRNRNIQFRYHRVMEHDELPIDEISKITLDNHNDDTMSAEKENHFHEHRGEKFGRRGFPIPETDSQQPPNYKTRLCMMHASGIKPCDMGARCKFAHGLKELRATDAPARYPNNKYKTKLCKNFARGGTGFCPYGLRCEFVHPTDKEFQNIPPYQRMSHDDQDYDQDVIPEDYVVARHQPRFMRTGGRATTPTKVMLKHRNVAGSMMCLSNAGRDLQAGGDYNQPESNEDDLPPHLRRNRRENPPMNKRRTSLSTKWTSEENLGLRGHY

[2] = target: T2, Endoribonuclease toxin MazF (Escherichia coli K-12, UniProt P0AE70); assay: substrate-only fluorescence increase artefacts – biochemical, single-stranded RNase substrate, counter-screen for MazEF activator project, dose response (AID 588502); format: functional
T2 sequence (P0AE70 whole entry): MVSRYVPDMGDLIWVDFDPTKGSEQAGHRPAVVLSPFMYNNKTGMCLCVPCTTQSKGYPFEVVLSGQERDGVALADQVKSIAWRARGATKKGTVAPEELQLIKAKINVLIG

[3] = target: T2, Endoribonuclease toxin MazF; assay: activation of MazEF endoribonuclease cleavage – biochemical, fluorescence, single-stranded RNA substrate, uHTS hits, dose response (AID 588481); format: functional
[4] = target: T3, RNA-binding protein pos-1 (Caenorhabditis elegans, UniProt G5EF15); assay: disruptors of C. elegans POS-1 RNA interaction – biochemical, fluorescence polarization, dose response (AID 1964);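 note: purified POS-1 fused to maltose binding protein made in E. coli; potency of compounds blocking POS-1 binding to fluorescent RNA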
T3 sequence (G5EF15 whole entry): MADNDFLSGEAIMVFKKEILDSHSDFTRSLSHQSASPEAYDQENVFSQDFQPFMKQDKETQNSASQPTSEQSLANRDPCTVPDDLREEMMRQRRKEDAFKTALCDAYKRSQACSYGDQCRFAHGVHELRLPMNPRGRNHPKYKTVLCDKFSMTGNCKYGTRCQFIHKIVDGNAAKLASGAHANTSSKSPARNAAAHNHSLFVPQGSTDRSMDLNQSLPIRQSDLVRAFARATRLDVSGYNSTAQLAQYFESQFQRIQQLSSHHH

[5] = target: Arf-GAP with SH3 domain, ANK repeat and PH domain-containing protein 1 (Homo sapiens, UniProt Q9ULH1); format: functional;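 note: biochemical fluorescence polarization dose–response screen measuring inhibition of ASAP1; ASAP1 GAP domain stimulating GTP hydrolysis by truncated human ARF1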
Arf-GAP with SH3 domain, ANK repeat and PH domain-containing protein 1, sequence (Q9ULH1 whole entry, the tested form may be a part): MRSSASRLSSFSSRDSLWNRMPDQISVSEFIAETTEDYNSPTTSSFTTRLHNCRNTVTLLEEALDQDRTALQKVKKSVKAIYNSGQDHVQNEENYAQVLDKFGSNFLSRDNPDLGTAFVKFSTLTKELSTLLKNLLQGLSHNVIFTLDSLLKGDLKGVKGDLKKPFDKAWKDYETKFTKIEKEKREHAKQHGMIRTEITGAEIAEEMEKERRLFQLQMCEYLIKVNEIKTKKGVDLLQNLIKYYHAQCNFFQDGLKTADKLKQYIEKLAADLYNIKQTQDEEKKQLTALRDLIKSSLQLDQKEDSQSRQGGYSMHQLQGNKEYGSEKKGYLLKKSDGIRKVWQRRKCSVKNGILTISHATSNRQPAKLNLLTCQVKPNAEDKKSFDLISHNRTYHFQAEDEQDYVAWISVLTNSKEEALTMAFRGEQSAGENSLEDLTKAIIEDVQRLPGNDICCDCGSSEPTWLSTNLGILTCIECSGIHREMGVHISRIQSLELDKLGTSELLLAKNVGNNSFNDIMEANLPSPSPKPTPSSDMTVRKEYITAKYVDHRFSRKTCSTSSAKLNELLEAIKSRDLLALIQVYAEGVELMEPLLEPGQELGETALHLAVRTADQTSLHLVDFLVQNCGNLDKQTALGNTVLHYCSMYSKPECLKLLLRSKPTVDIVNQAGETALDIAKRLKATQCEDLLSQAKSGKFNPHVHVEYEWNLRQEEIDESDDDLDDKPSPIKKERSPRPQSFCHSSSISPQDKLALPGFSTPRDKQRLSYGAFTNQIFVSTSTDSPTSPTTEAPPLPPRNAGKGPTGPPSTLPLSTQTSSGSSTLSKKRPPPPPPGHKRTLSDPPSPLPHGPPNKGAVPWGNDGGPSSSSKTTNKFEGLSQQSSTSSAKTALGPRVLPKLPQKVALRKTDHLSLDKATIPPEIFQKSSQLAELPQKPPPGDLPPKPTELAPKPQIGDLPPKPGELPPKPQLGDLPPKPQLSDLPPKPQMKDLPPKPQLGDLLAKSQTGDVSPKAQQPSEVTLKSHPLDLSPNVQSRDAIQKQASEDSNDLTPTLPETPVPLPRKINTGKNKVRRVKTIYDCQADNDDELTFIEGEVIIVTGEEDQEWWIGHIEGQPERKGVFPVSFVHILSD

[6] = target: T4, Cytochrome P450 1A2 (Homo sapiens, UniProt P05177);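 note: PubChem cytochrome P450 panel assay, CYP1A2 panel member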
T4 sequence (P05177 whole entry): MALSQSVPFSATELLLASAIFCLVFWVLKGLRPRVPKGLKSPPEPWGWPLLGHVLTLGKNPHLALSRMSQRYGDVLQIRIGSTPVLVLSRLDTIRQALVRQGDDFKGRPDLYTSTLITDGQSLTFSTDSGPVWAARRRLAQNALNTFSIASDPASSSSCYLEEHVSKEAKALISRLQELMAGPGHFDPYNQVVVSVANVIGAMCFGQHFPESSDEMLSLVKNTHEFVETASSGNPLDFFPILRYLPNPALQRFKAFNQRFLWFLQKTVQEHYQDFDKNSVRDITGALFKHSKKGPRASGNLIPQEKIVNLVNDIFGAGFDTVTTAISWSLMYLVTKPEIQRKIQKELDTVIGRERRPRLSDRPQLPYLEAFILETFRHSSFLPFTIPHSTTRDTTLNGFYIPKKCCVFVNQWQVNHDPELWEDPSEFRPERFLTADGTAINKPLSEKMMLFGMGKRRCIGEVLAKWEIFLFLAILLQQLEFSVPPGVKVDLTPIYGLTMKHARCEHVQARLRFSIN

[7] = target: Beta-galactosidase (Escherichia coli, UniProt Q8VNN2); assay: PubChem AID 485352; format: functional
Beta-galactosidase, sequence (Q8VNN2 whole entry): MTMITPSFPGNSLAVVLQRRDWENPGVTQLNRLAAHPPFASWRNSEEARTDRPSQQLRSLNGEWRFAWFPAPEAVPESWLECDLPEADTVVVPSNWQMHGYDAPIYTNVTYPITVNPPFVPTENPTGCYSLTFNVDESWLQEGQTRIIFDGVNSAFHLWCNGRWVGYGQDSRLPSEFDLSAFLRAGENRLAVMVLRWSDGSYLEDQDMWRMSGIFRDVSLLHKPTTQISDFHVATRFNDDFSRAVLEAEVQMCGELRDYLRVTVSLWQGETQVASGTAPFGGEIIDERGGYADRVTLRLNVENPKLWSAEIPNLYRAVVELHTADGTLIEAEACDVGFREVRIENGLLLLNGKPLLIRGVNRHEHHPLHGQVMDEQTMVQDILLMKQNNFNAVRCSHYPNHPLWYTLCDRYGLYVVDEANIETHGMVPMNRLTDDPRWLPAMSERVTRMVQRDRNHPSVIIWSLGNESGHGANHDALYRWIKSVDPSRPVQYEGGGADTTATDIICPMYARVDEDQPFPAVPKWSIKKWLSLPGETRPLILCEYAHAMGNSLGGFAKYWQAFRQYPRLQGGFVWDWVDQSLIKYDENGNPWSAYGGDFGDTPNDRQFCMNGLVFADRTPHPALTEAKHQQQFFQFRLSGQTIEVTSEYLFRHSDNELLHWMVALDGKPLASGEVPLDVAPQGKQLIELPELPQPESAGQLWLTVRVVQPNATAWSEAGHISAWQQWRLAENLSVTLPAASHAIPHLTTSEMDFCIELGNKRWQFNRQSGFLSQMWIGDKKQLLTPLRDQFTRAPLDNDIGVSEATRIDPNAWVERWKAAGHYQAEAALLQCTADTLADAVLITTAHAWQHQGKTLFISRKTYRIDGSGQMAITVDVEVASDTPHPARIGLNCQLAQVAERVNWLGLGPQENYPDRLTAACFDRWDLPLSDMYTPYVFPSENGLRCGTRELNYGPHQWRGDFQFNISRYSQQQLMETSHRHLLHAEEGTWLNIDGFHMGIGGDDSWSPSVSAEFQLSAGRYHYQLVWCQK

[8] = target: T5, Type-1 angiotensin II receptor (Homo sapiens, UniProt P30556); assay: antagonism of angiotensin II type 1 receptor – cell-based, uHTS hits, selectivity assay for APJ receptor antagonist project, dose response (AID 463214); format: functional;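 note: antagonist potency against angiotensin II stimulated AT1 response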
T5 sequence (P30556 whole entry): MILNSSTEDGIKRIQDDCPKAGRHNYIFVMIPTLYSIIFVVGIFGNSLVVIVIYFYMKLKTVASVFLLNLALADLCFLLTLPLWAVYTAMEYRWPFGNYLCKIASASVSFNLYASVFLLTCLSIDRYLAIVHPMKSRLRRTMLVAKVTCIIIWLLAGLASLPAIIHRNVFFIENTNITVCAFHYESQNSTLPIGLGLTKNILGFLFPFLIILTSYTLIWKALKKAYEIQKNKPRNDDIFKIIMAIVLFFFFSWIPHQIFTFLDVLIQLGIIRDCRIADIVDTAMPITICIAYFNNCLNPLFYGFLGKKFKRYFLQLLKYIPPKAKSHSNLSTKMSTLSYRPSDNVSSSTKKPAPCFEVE

[9] = target: T6, Aminopeptidase N (Plasmodium falciparum FcB1/Columbia, UniProt O96935); assay: malaria alanyl aminopeptidase activity blockers – biochemical, fluorogenic H-Leu-NHMec substrate, 1536-well (AID 1445); parameters: species or system Plasmodium falciparum 3D7, 3D7
T6 sequence (O96935 whole entry): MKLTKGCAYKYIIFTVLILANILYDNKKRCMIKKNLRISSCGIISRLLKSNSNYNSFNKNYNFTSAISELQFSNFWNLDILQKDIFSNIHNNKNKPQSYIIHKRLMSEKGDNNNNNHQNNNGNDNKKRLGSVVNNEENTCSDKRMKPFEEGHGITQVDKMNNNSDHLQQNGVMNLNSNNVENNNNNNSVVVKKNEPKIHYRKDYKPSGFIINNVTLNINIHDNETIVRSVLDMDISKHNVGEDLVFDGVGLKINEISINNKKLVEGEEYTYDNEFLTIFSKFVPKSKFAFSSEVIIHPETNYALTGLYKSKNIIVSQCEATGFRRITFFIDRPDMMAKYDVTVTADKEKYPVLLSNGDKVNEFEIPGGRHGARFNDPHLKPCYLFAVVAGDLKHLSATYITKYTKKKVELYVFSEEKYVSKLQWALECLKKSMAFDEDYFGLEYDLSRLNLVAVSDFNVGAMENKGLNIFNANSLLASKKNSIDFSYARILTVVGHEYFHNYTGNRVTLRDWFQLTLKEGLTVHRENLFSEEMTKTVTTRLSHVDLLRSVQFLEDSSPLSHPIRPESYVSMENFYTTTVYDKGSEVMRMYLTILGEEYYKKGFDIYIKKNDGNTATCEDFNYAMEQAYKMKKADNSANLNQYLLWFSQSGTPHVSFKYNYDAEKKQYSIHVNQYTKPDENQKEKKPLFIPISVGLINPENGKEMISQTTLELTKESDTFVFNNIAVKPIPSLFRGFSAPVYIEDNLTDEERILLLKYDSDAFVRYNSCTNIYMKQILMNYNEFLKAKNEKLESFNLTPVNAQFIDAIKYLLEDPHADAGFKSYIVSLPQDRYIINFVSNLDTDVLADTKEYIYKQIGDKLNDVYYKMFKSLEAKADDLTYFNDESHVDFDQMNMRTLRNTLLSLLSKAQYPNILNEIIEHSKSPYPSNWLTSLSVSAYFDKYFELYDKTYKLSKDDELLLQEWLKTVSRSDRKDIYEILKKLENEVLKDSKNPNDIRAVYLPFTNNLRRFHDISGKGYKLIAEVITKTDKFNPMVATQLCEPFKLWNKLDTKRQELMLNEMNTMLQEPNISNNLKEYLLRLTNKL

[10] = target: Dual specificity tyrosine-phosphorylation-regulated kinase 1A (Rattus norvegicus, UniProt Q63470); format: biochemical, Homo sapiens
[11] = target: FAD-linked sulfhydryl oxidase ALR (Homo sapiens, UniProt P55789); assay: ALR-catalysed DTT oxidation blockers – biochemical, H2O2 detection, luminescence, cherry-pick, dose response (AID 493248)
FAD-linked sulfhydryl oxidase ALR, sequence (P55789 whole entry): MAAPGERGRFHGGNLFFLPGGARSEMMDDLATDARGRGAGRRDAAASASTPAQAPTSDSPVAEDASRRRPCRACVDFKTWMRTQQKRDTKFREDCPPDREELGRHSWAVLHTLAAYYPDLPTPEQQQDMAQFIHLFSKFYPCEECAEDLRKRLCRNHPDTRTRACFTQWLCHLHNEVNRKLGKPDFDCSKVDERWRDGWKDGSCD

[12] = target: T7, Caspase-6 (Homo sapiens, UniProt P55212); assay: inhibition of CASP6 peptide cleavage – biochemical, VEID-R110 fluorescence, cherry-pick, dose response (AID 720632)
T7 sequence (P55212 whole entry): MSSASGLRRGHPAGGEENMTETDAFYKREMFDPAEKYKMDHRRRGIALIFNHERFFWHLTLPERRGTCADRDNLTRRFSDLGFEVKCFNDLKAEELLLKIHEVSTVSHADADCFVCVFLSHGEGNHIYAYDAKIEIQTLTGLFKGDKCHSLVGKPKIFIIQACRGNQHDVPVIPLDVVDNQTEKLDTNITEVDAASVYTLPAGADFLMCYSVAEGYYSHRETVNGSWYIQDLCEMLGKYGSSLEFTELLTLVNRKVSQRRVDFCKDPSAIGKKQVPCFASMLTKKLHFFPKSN

[13] = target: T8, RNA-editing ligase 1, mitochondrial (Trypanosoma brucei brucei, UniProt P86926); assay: inhibition of trypanosome RNA editing ligase – biochemical, fluorescence, Trypanosoma brucei, dose response (AID 1117295); format: functional
T8 sequence (P86926 whole entry): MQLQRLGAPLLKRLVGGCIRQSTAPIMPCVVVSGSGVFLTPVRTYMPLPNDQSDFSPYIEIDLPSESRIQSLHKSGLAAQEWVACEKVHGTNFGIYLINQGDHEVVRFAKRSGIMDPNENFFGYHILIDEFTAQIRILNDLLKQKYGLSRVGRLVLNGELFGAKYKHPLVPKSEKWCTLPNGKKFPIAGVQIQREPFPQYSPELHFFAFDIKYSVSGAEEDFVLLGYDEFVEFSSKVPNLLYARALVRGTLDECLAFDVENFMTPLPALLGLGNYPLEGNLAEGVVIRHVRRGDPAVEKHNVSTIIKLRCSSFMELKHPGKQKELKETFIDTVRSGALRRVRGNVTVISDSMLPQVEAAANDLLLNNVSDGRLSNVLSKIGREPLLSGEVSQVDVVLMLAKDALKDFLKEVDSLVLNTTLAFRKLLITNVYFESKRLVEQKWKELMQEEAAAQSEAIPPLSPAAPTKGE

Compound	EC50 [1]	EC50 [2]	EC50 [3]	EC50 [4]	other results
O=c1oc2ccc3ccccc3c2cc1-c1nc2ccccc2o1	> 300 µM (inconclusive)	> 99 µM (inactive)	> 99 µM (inactive)	> 300 µM (not active)	
Cc1ccc(NC(=O)c2ccc(NCC3CCCO3)c([N+](=O)[O-])c2)cc1Cl (stereo unspecified)		> 99 µM (inactive)	> 99 µM (inactive)		IC50 [5]: 5.2 µM (active); AC50 [6]: 14.1 µM (inconclusive)
CCOC(=O)C1=C2NC(=O)c3ccccc3N2C(=O)C1	38.8 µM (active)			89 µM (active)	EC50 [7]: > 40 µM (inactive); IC50 [8]: 9.25 µM (active)
O=[N+]([O-])c1ccc(C=CC=Cc2ccccc2)cc1		> 99 µM (inactive)	> 99 µM (inactive)		
COc1c(O)cc2oc(-c3ccc(O)c(O)c3)cc(=O)c2c1O [EUPAFOLIN]	36 µM (active)			93.1 µM (active)	IC50 [9]: 15.6 µM (active); AC50 [10]: 12.7 µM (active); AC50 [11]: 0.23 µM (active); AC50 [12]: 29.3 µM (active); IC50 [13]: > 96.6 µM (inactive)

Source: ChEMBL document CHEMBL1201862, “PubChem BioAssay data set” (2004)
